From US20020137929A1, “1 - (3-heterocyclylphenyl) isothiourea, -isourea, -guanidine and -amidine herbicidal agents” (Intellectual Property Department, BASF Aktiengesellschaft, priority 1998, published 2002)

Legend:
ABUTH (Velvetleaf) = assay: Postemergence herbicidal evaluation; assay type: in vivo, Abutilon theophrasti; conditions: postemergence
How it was run: (§1)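 Seedlings grown about two weeks were sprayed at 40 psi with compound dispersed in 50/50 acetone/water plus 0.5% TWEEN 20, at about 0.0156 to 0.500 kg/ha. Plants were kept in the greenhouse and scored 4–5 weeks later on a 0–9 visual scale against untreated controls.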

[1] = test system: CHEAL (Lambsquarters, Common); assay: Postemergence herbicidal evaluation; assay type: in vivo, Chenopodium album; conditions: postemergence
How it was run: as §1

SETVI (Foxtail, Green) [2] = assay: Postemergence herbicidal evaluation; assay type: in vivo, Setaria viridis; conditions: postemergence
How it was run: as §1

[3] = test system: GLXMAW (Soybean, Williams); assay: Postemergence herbicidal evaluation; assay type: in vivo, Glycine max, (L.) Merr. cv Williams; conditions: postemergence
How it was run: as §1

ORYSAT (Rice, Tebonnet) = assay: Postemergence herbicidal evaluation; assay type: in vivo, Oryza sativa, (L.) Tebonnet; conditions: postemergence
How it was run: as §1

[4] = test system: TRZAWR (Wheat, Winter, cv Riband); assay: Postemergence herbicidal evaluation; assay type: in vivo, Triticum aestivum; conditions: postemergence
How it was run: as §1

ZEAMX (Corn, Field) = assay: Postemergence herbicidal evaluation; assay type: in vivo, Zea mays; conditions: postemergence
How it was run: as §1

AMBEL (Ragweed, Common) = assay: Preemergence herbicidal evaluation; assay type: in vivo, Ambrosia artemisifolia; conditions: preemergence, rated 4-5 weeks after treatment, 0-9 scale
How it was run: (§2)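 Visual 0-9 rating vs control (stand, vigor, malformation, size, chlorosis, overall appearance), scored 4-5 wk after spraying. Seeded soil cups were treated preemergence with compound in aqueous acetone, ~0.0156-0.500 kg/ha equivalent.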

GALAP (Galium) = assay: Preemergence herbicidal evaluation; assay type: in vivo, Galium aparine; conditions: preemergence, rated 4-5 weeks after treatment, 0-9 scale
How it was run: as §2

SETVI (Foxtail, Green) [5] = assay: Preemergence herbicidal evaluation; assay type: in vivo, Setaria viridis; conditions: preemergence, rated 4-5 weeks after treatment, 0-9 scale
How it was run: as §2

CYPIR (Rice Flatsedge) = assay: Preemergence weed control under flooded paddy conditions; assay type: in vivo, Cyperus iria; conditions: rated 3-4 weeks after treatment
How it was run: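 Herbicidal effect is scored visually on a 0-9 scale against an untreated control, three to four weeks after compounds are pipetted into the flood water (1.5 to 3 cm deep) over seeds planted in silt loam at 0.5 cm depth. Rates: about 0.0313 to 0.500 kg/ha.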

[6] = test system: ECHORC (Watergrass (Calif.)); assay: Postemergence weed control under flooded paddy conditions; assay type: in vivo, Echinochloa oryzoides; conditions: postemergence weeds, rated 3 to 4 weeks after treatment
How it was run: (§3)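 Injury ratings (0–9 scale covering stand, vigor, malformation, size, chlorosis and overall appearance versus control) were made three to four weeks after treatment. Test material, about 0.0313 to 0.500 kg/ha a.i. in 50/50 v/v aqueous/acetone, was added to flood water 1.5 to 3 cm deep over 3 to 5 cm weeds and 1.5 to 2.5 leaf rice.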

CYPSE (Flatsedge) = assay: as above; assay type: in vivo, Cyperus serotinus; conditions: postemergence weeds, rated 3 to 4 weeks after treatment
How it was run: as §3

[7] = test system: SAGPY (Arrowhead (Pygmaea)); assay: as above; assay type: in vivo, Sagittaria pygmaea; conditions: postemergence weeds, rated 3 to 4 weeks after treatment
How it was run: as §3

Structure (SMILES): CN1C(=O)C(CC(=O)Nc2ccccc2)SC1=Nc1cc(-n2c(=O)cc(C(F)(F)F)n(C)c2=O)c(F)cc1Cl (centres unmarked) [Compound 91, 2-{{2-Chloro-5-[3,6-dihydro-3-methyl-2,6-dioxo-4-(trifluoromethyl)-1(2H)-pyrimidinyl]-4-fluorophenyl}imino}-3-methyl-4-oxo-5-thiazolidineacetanilide]
- ABUTH herbicidal rating (ABUTH (Velvetleaf); rate 0.0158 kg/ha): 7.0
- ABUTH herbicidal rating (ABUTH (Velvetleaf); rate 0.0315 kg/ha): 9.0
- ABUTH herbicidal rating (ABUTH (Velvetleaf); rate 0.0630 kg/ha): 9.0
- CHEAL herbicidal rating ([1]; rate 0.0158 kg/ha): 0.0
- CHEAL herbicidal rating ([1]; rate 0.0315 kg/ha): 3.0
- CHEAL herbicidal rating ([1]; rate 0.0630 kg/ha): 3.0
- SETVI herbicidal rating (SETVI (Foxtail, Green) [2]; rate 0.0158 kg/ha): 0.0
- SETVI herbicidal rating (SETVI (Foxtail, Green) [2]; rate 0.0315 kg/ha): 0.0
- SETVI herbicidal rating (SETVI (Foxtail, Green) [2]; rate 0.0630 kg/ha): 0.0
- GLXMAW herbicidal rating ([3]; rate 0.0158 kg/ha): 4.5
- GLXMAW herbicidal rating ([3]; rate 0.0315 kg/ha): 4.5
- GLXMAW herbicidal rating ([3]; rate 0.0630 kg/ha): 5.5
- ORYSAT herbicidal rating (ORYSAT (Rice, Tebonnet); rate 0.0158 kg/ha): 1.0
- ORYSAT herbicidal rating (ORYSAT (Rice, Tebonnet); rate 0.0315 kg/ha): 1.0
- ORYSAT herbicidal rating (ORYSAT (Rice, Tebonnet); rate 0.0630 kg/ha): 2.0
- TRZAWR herbicidal rating ([4]; rate 0.0158 kg/ha): 2.5
- TRZAWR herbicidal rating ([4]; rate 0.0315 kg/ha): 3.0
- TRZAWR herbicidal rating ([4]; rate 0.0630 kg/ha): 4.0
- ZEAMX herbicidal rating (ZEAMX (Corn, Field); rate 0.0158 kg/ha): 4.0
- ZEAMX herbicidal rating (ZEAMX (Corn, Field); rate 0.0315 kg/ha): 4.0
- ZEAMX herbicidal rating (ZEAMX (Corn, Field); rate 0.0630 kg/ha): 5.0
- AMBEL rating (AMBEL (Ragweed, Common); 0.1250 kg/ha): 0.0
- AMBEL rating (AMBEL (Ragweed, Common); 0.2500 kg/ha): 0.0
- GALAP rating (GALAP (Galium); 0.1250 kg/ha): 0.0
- GALAP rating (GALAP (Galium); 0.2500 kg/ha): 0.0
- SETVI rating (SETVI (Foxtail, Green) [5]; 0.1250 kg/ha): 0.0
- SETVI rating (SETVI (Foxtail, Green) [5]; 0.2500 kg/ha): 0.0
- CYPIR herbicidal effect rating (CYPIR (Rice Flatsedge); 0.0313 kg/ha): 0.0
- CYPIR herbicidal effect rating (CYPIR (Rice Flatsedge); 0.0625 kg/ha): 0.0
- CYPIR herbicidal effect rating (CYPIR (Rice Flatsedge); 0.1250 kg/ha): 0.0
- CYPIR herbicidal effect rating (CYPIR (Rice Flatsedge); 0.2500 kg/ha): 0.0
- Herbicidal rating ECHORC ([6]; Rate 0.0313 kg/ha): 0.0
- Herbicidal rating ECHORC ([6]; Rate 0.0625 kg/ha): 0.0
- Herbicidal rating ECHORC ([6]; Rate 0.1250 kg/ha): 2.0
- Herbicidal rating ECHORC ([6]; Rate 0.2500 kg/ha): 4.0
- Herbicidal rating CYPSE (CYPSE (Flatsedge); Rate 0.0313 kg/ha): 0.0
- Herbicidal rating CYPSE (CYPSE (Flatsedge); Rate 0.0625 kg/ha): 0.0
- Herbicidal rating CYPSE (CYPSE (Flatsedge); Rate 0.1250 kg/ha): 0.0
- Herbicidal rating CYPSE (CYPSE (Flatsedge); Rate 0.2500 kg/ha): 0.0
- Herbicidal rating SAGPY ([7]; Rate 0.0313 kg/ha): 0.0
- Herbicidal rating SAGPY ([7]; Rate 0.0625 kg/ha): 0.0
- Herbicidal rating SAGPY ([7]; Rate 0.1250 kg/ha): 0.0
- Herbicidal rating SAGPY ([7]; Rate 0.2500 kg/ha): 0.0

Structure (SMILES): C=CCN1C(=O)C(CC(=O)NS(=O)(=O)CC)SC1=Nc1cc(-n2c(=O)cc(C(F)(F)F)n(C)c2=O)c(F)cc1Cl (centres unmarked) [Compound 104, 3-Allyl-2-{{2-chloro-5-[3,6-dihydro-3-methyl-2,6-dioxo-4-(trifluoromethyl)-1(2H)-pyrimidinyl]-4-fluorophenyl}imino}-N-(ethylsulfonyl)-4-oxo-5-thiazolidineacetamide]
- Herbicidal rating ABUTH (ABUTH (Velvetleaf); rate 0.0156 kg/ha): 7.0
- Herbicidal rating ABUTH (ABUTH (Velvetleaf); rate 0.0313 kg/ha): 7.0
- Herbicidal rating ABUTH (ABUTH (Velvetleaf); rate 0.0625 kg/ha): 9.0
- Herbicidal rating ABUTH (ABUTH (Velvetleaf); rate 0.1250 kg/ha): 9.0
- Herbicidal rating CHEAL ([1]; rate 0.0156 kg/ha): 0.0
- Herbicidal rating CHEAL ([1]; rate 0.0313 kg/ha): 2.0
- Herbicidal rating CHEAL ([1]; rate 0.0625 kg/ha): 4.0
- Herbicidal rating CHEAL ([1]; rate 0.1250 kg/ha): 5.0
- Herbicidal rating SETVI (SETVI (Foxtail, Green) [2]; rate 0.0156 kg/ha): 0.0
- Herbicidal rating SETVI (SETVI (Foxtail, Green) [2]; rate 0.0313 kg/ha): 0.0
- Herbicidal rating SETVI (SETVI (Foxtail, Green) [2]; rate 0.0625 kg/ha): 3.0
- Herbicidal rating SETVI (SETVI (Foxtail, Green) [2]; rate 0.1250 kg/ha): 4.0
- Herbicidal rating GLXMAW ([3]; rate 0.0156 kg/ha): 4.5
- Herbicidal rating GLXMAW ([3]; rate 0.0313 kg/ha): 5.5
- Herbicidal rating GLXMAW ([3]; rate 0.0625 kg/ha): 7.0
- Herbicidal rating GLXMAW ([3]; rate 0.1250 kg/ha): 8.5
- Herbicidal rating ORYSAT (ORYSAT (Rice, Tebonnet); rate 0.0156 kg/ha): 0.0
- Herbicidal rating ORYSAT (ORYSAT (Rice, Tebonnet); rate 0.0313 kg/ha): 0.5
- Herbicidal rating ORYSAT (ORYSAT (Rice, Tebonnet); rate 0.0625 kg/ha): 1.0
- Herbicidal rating ORYSAT (ORYSAT (Rice, Tebonnet); rate 0.1250 kg/ha): 2.0
- Herbicidal rating TRZAWR ([4]; rate 0.0156 kg/ha): 3.0
- Herbicidal rating TRZAWR ([4]; rate 0.0313 kg/ha): 3.0
- Herbicidal rating TRZAWR ([4]; rate 0.0625 kg/ha): 4.0
- Herbicidal rating TRZAWR ([4]; rate 0.1250 kg/ha): 4.0
- Herbicidal rating ZEAMX (ZEAMX (Corn, Field); rate 0.0156 kg/ha): 4.5
- Herbicidal rating ZEAMX (ZEAMX (Corn, Field); rate 0.0313 kg/ha): 4.5
- Herbicidal rating ZEAMX (ZEAMX (Corn, Field); rate 0.0625 kg/ha): 6.0
- Herbicidal rating ZEAMX (ZEAMX (Corn, Field); rate 0.1250 kg/ha): 8.0
- AMBEL rating (AMBEL (Ragweed, Common); 0.0625 kg/ha): 0.0
- AMBEL rating (AMBEL (Ragweed, Common); 0.1250 kg/ha): 0.0
- AMBEL rating (AMBEL (Ragweed, Common); 0.2500 kg/ha): 3.0
- AMBEL rating (AMBEL (Ragweed, Common); 0.5000 kg/ha): 9.0
- GALAP rating (GALAP (Galium); 0.0625 kg/ha): 0.0
- GALAP rating (GALAP (Galium); 0.1250 kg/ha): 0.0
- GALAP rating (GALAP (Galium); 0.2500 kg/ha): 0.0
- GALAP rating (GALAP (Galium); 0.5000 kg/ha): 6.0
- SETVI rating (SETVI (Foxtail, Green) [5]; 0.0625 kg/ha): 0.0
- SETVI rating (SETVI (Foxtail, Green) [5]; 0.1250 kg/ha): 0.0
- SETVI rating (SETVI (Foxtail, Green) [5]; 0.2500 kg/ha): 0.0
- SETVI rating (SETVI (Foxtail, Green) [5]; 0.5000 kg/ha): 6.0
- CYPIR herbicidal effect rating (CYPIR (Rice Flatsedge); 0.0313 kg/ha): 5.0
- CYPIR herbicidal effect rating (CYPIR (Rice Flatsedge); 0.0625 kg/ha): 9.0
- CYPIR herbicidal effect rating (CYPIR (Rice Flatsedge); 0.1250 kg/ha): 9.0
- CYPIR herbicidal effect rating (CYPIR (Rice Flatsedge); 0.2500 kg/ha): 9.0
- Herbicidal rating ECHORC ([6]; Rate 0.0313 kg/ha): 4.0
- Herbicidal rating ECHORC ([6]; Rate 0.0625 kg/ha): 5.0
- Herbicidal rating ECHORC ([6]; Rate 0.1250 kg/ha): 6.0
- Herbicidal rating ECHORC ([6]; Rate 0.2500 kg/ha): 6.0
- Herbicidal rating CYPSE (CYPSE (Flatsedge); Rate 0.0313 kg/ha): 0.0
- Herbicidal rating CYPSE (CYPSE (Flatsedge); Rate 0.1250 kg/ha): 0.0
- Herbicidal rating CYPSE (CYPSE (Flatsedge); Rate 0.2500 kg/ha): 0.0
- Herbicidal rating SAGPY ([7]; Rate 0.0313 kg/ha): 6.0
- Herbicidal rating SAGPY ([7]; Rate 0.0625 kg/ha): 9.0
- Herbicidal rating SAGPY ([7]; Rate 0.1250 kg/ha): 9.0
- Herbicidal rating SAGPY ([7]; Rate 0.2500 kg/ha): 9.0
